Experimental findings from patent US20230132093A1, “EXTRACELLULAR VESICLE-NLRP3 ANTAGONIST” (Codiak BioSciences, Inc., priority 2019, published 2023) are described below.

Entries after “also recorded” stand apart in the source; their conditions may differ.

Data set [1] deals with primary human MO macrophages. Kind of data set: Cell viability of cultured primary human MO macrophages treated with ASO. Type of data set: cell-based.
Another data set relates to human NLRP3. Kind of data set: IL-1β secretion in cultured primary human MO macrophages after ASO, LPS and ATP. The note with it: for IL-1β induction: 50 nM ASO; for IL-1β secretion relative to ASO scramble controls: most donor cell populations. Type of data set: cell-based. As to the method:
The top-performing ASOs were further analyzed using human monocytes isolated from whole blood. Isolated monocytes were cultured for seven to eight days in M-CSF. Cells were then seeded and cultured overnight. […] Three hours later, the cells were treated with 5 mM ATP. Three hours later, IL-1β levels were measured using AlpaLISA. Cholesterol-tagged ASOs were incubated with PTGFRN-overexpressing exosomes to load the ASOs on the surface of the exosomes.

For a further data set, the system named is mouse NLRP3 transcript. The data set is described as follows: NLRP3 knock down in mouse J774.1 cells, qRT-PCR. Type of data set: cell-based. To be noted: 7-point titration. As to the method: In silico analysis of the mouse NLRP3 transcript was used to generate 100 candidate NLRP3 ASOs. Mouse J774.1 cells were treated in vitro with either 5 nM or 20 nM of each candidate NLRP3 ASO. NLRP3 expression was measured using qRT-PCR, and about 30 ASOs yielding a knock down of at least 50% were subjected to further analysis. The top 22 performing ASOs were then subjected to a 7-point titration of various concentrations in mouse J774.1 cells, and NLRP3 expression was again measured by qRT-PCR (FIGS. 4A-4V).
(In general: In qPCR the cycle at which signal appears reflects the starting amount.)

The next data set has as its system mouse NLRP3 reporter. Kind of data set: Knock down of HiBit-fused mouse NLRP3 reporter in HEK reporter cell line. Type of data set: cell-based. The note with it: eleven concentrations. The source says: A HEK reporter cell line was transfected with a mouse NLRP3 reporter contruct (FIG. 5A) to assay NLRP3 knockdown at eleven concentrations for the top five performing mouse ASOs (ASO Nos. 16, 19, 70, 98, and 43; FIG. 5B).

The next data set has as its system BMDM. Kind of data set: Viability of BMDM treated with LPS, ATP and mNLRP3 ASOs. Type of data set: cell-based, mouse.
In another data set the test system is NLRP3 pathway. The data set is described as follows: IL-1β secretion in BMDM after ASO-RNAiMAX transfection, LPS and ATP. Type of data set: cell-based, mouse. The note with it: 2 days post transfection, 200 ng/mL LPS 3 h, 5 mM ATP 3 h. As to the method: Bone marrow-derived macrophages (BMDM) can be used to determine whether knock down of NLRP3 has a downstream effect on activation of the NLRP3 pathway (FIGS. 6A-6B). BMDMs were transfected with increasing concentrations of the top five performing mouse ASOs (ASO Nos. 16, 19, 70, 98, and 43) as part of an ASO-RNAiMAX complex. Two days post transfection, the cells BMDM were treated with 200 ng/mL LPS. Three hour later, the BMDM were treated with 5 mM ATP. Three hours after ATP treatment, IL-1 β secretion was measured.

Take “ASO 1664: human NLRP3 ASO, SEQ ID NO: 143 (antisense CGTCAAAGGCACCTTGCAGC; chemistry not given here)”: the Cell viability result in data set [1] (2 nM ASO) is reported as “remained stable”; in data set [1] (10 nM ASO), “remained stable”; in data set [1] (50 nM ASO), “dropped”. The IL-1β induction entry with human NLRP3 (2 nM, 10 nM) was “dose dependent decrease”. Also, the “IL-1β secretion relative to ASO scramble controls” value in the data set with human NLRP3 (2 nM) and in the data set with human NLRP3 (10 nM) was “reduced IL-1β secretion” in each case.
As for “ASO 2672: human NLRP3 ASO, SEQ ID NO: 166 (antisense AGTCCATGGCCCTTTGCACG; chemistry not given here)”, the values for the Cell viability entry in data set [1] (2 nM ASO), in data set [1] (10 nM ASO) and in data set [1] (50 nM ASO) were “remained stable”, “remained stable” and “dropped”, respectively. The IL-1β induction entry in the data set with human NLRP3 (2 nM, 10 nM) is “dose dependent decrease”. Also, the “IL-1β secretion relative to ASO scramble controls” value in the data set with human NLRP3 (2 nM) and with human NLRP3 (10 nM) was “reduced IL-1β secretion” throughout.
Take “ASO 3094: human NLRP3 ASO, SEQ ID NO: 174 (antisense GTCGAAGCAGCACTCATGCG; chemistry not given here)”: the Cell viability result in data set [1] (2 nM ASO) is given as “remained stable”; in data set [1] (10 nM ASO), “remained stable”; in data set [1] (50 nM ASO), “dropped”. In the data set on human NLRP3 (2 nM, 10 nM), the IL-1β induction entry is given as “dose dependent decrease”. For the same substance, the “IL-1β secretion relative to ASO scramble controls” value in the data set with human NLRP3 (2 nM) and with human NLRP3 (10 nM) was “reduced IL-1β secretion” in each case.
Take “ASO No. 11: mouse NLRP3 ASO, SEQ ID NO: 206, Seq Start 2961 (antisense GCTTCGTAGATAGAGGTGTG; chemistry not fully specified)”: in the data set with mouse NLRP3 transcript, the concentration for half-maximal inhibition (IC50) was determined as 28.2 nM and the “Lowest % value (remaining NLRP3 transcript as a percent of starting levels)” value was found to be 30.70%.
In the case of “ASO No. 16: mouse NLRP3 ASO, SEQ ID NO: 201, Seq Start 229 (antisense GCTTGCAACGGACACTCGTC; chemistry not given here)”, the “Knock down of NLRP3 in the HEK reporter cell line” value (“Knock down of NLRP3” for short) in the data set on mouse NLRP3 reporter is given as “dose-dependent knock down”. Also, in the data set with BMDM, the Viability result is “increased viability”. Moreover, in the data set on NLRP3 pathway, the IL-1β secretion entry was “decreased IL-1β secretion at all doses tested”. For the same substance, in the data set with mouse NLRP3 transcript, the IC50 was 6.56 nM and the “Lowest % value (remaining NLRP3 transcript as a percent of starting levels)” value was found to be 36.10%.
Taken in the same sequence, the figures for “ASO No. 19: mouse NLRP3 ASO, SEQ ID NO: 202, Seq Start 318 (antisense GATACAGCCTTTCTCGGGCG; chemistry not given here)” were “dose-dependent knock down”, “increased viability”, “decreased IL-1β secretion at all doses tested”, 12.7 nM and 36.10%.
Regarding “ASO No. 21: mouse NLRP3 ASO, SEQ ID NO: 207, Seq Start 392 (antisense TCGCCATTGAAGTCAATCAT; chemistry not fully specified)”, in the data set with mouse NLRP3 transcript, the half-inhibitory concentration (IC50) came to 30.1 nM and the “Lowest % value (remaining NLRP3 transcript as a percent of starting levels)” value stood at 33.07%.
The corresponding values for “ASO No. 41: mouse NLRP3 ASO, SEQ ID NO: 208, Seq Start 984 (antisense CTCTCGGCAGTGGATAAAGA; chemistry not fully specified)” are 57.3 nM and 52.30%.
Consider “ASO No. 43: mouse NLRP3 ASO, SEQ ID NO: 205, Seq Start 1132 (antisense CGTCAAAGGCCCCTTGTAGC; chemistry not given here)”, for which, in the data set with mouse NLRP3 reporter, the “Knock down of NLRP3” value is listed as “dose-dependent knock down”. The Viability entry with BMDM was “increased viability”. In the data set on NLRP3 pathway, the IL-1β secretion result is recorded as “decreased IL-1β secretion at all doses tested”. Also, in the data set with mouse NLRP3 transcript, the half-inhibitory concentration (IC50) amounted to 15.4 nM and the “Lowest % value (remaining NLRP3 transcript as a percent of starting levels)” value turned out to be 48.37%.
As to “ASO No. 48: mouse NLRP3 ASO, SEQ ID NO: 209, Seq Start 1262 (antisense TCCAAGGCTACCGGCCTCGT; chemistry not fully specified)”, in the data set with mouse NLRP3 transcript, the half-inhibitory concentration (IC50) came out at 60.6 nM and the “Lowest % value (remaining NLRP3 transcript as a percent of starting levels)” value was 65.00%.
The corresponding values for “ASO No. 55: mouse NLRP3 ASO, SEQ ID NO: 210, Seq Start 1740 (antisense CTCGCAGTCCACTTCCTTCT; chemistry not fully specified)” are 63.1 nM and 59.17%.
For the substance “ASO No. 70: mouse NLRP3 ASO, SEQ ID NO: 203, Seq Start 2235 (antisense CGTTTTGACCCTATGACAGT; chemistry not given here)”, the “Knock down of NLRP3” value with mouse NLRP3 reporter was “dose-dependent knock down”. Further, the Viability result with BMDM is “increased viability”. The IL-1β secretion result with NLRP3 pathway is “decreased IL-1β secretion at all doses tested”. Also, in the data set on mouse NLRP3 transcript, inhibition was half-maximal at 13.4 nM (IC50) and the “Lowest % value (remaining NLRP3 transcript as a percent of starting levels)” value was 30.43%.
As for “ASO No. 98: mouse NLRP3 ASO, SEQ ID NO: 204, Seq Start 3761 (antisense CGGGATGGTCAGTTAACAGG; chemistry not given here)”, the “Knock down of NLRP3” value in the data set on mouse NLRP3 reporter (listed as 98) is recorded as “dose-dependent knock down; also recorded: most robust knock down”. In addition, the Viability result with BMDM is given as “increased viability”. For the same substance, in the data set with NLRP3 pathway, the IL-1β secretion entry was “decreased IL-1β secretion at all doses tested”. Moreover, in the data set on mouse NLRP3 transcript, the IC50 was determined as 14.7 nM and the “Lowest % value (remaining NLRP3 transcript as a percent of starting levels)” value is on record as 42.17%.

The term IC50 denotes the concentration needed to halve the response being measured. A low value points to greater potency.
